For one assay, the system named is ovariectomized rats. Nature of the assay: Efficacy testing of PTH analogs in ovariectomized rats. In kind it is in vivo, Sprague Dawley rats. As to conditions: for proximal tibia trabecular bone mineral density (BMD) by pQCT: Week 20; for osteocalcin (bone formation marker): plasma. As to the method:
To compare their effects in bone, amidated fragments of human parathyroid hormone (PTH) were evaluated in the ovariectomized rat model. Aged female Sprague Dawley rats were subject to bilateral ovariectomy or sham surgery. The animals were held untreated for a period of 8 weeks to allow the development of osteopenia. At that point, the ovariectomized animals were segregated into groups, and each group received daily subcutaneous injection of either vehicle or one of the following PTH fragments: PTH[1-30]NH2, PTH[1-31]NH2, PTH[1-32]NH2, PTH[1-33]NH2, and PTH[1-34]NH2 at a dose of 9.7 nmol/Kg. Treatment continued for a period of twelve weeks. Primary measures of analyses were 1) bone mineral density (BMD) of the spine (L3-L6) as determined by Dual Energy X-Ray Absorptiometry (DXA), 2) trabecular BMD of the proximal tibia as determined by peripheral Quantitative Computed Tomography (pQCT)and 3) evaluation of cortical bone in the distal tibia by PQCT. Secondary measures included urinary deoxypyridinoline (bone resorption marker), plasma osteocalcin (bone formation marker), histomorphometry of trabecular bone from the fourth lumbar vertebra (L4) and cortical bone from the distal tibia, microcomputed tomography (μCT), and bone strength tests of the spine and femur. Bone strength analysis was done on the femoral midshaft and a lumbar vertebral body.
In other experiments involving an ovariectomized rat model for osteoporosis, good efficacy is shown for the pharmaceutical agents of the invention. For example, the groups used in the study were: Sham, OVX (ovariectomized rats), OVX+PTH(1-30)NH2, OVX+PTH(1-31)NH2, OVX +PTH(1-32)NH2, OVX +PTH(1-33)NH2 and OVX +PTH(1-34)NH2.

The next assay deals with adenylyl cyclase (AC). The settings on record: cited from earlier work.
The subject of another assay is ovariectomized rat model. As to conditions: cited from earlier work.
Setting [1] is: 9.7 nmol/Kg daily subcutaneous injection, twelve weeks.

No end group written: not given here.

For “PTH[1-34]NH2: amidated fragment of human parathyroid hormone (PTH), 34 amino acids; hPTH-(1-34) sequence is SEQ ID NO:1”, in the assay on ovariectomized rats, the “proximal tibia trabecular bone mineral density (BMD) by pQCT” value is reported as “continue to increase”; the “osteocalcin (bone formation marker)” value is “significantly more increase than PTH amide fragments (1-31) and (1-32)”. For the same substance, the “bone formation rate/bone surface (BFR/BS) on the periosteal surface” value in the assay on ovariectomized rats (compared to OVX) is listed as “increased BFR/BS”. For the same substance, the “cortical bone mass, bone formation on periosteal and endosteal bone surfaces (anabolic effect)” value (“cortical bone mass, bone formation” for short) with ovariectomized rats (rat, in vivo) is on record as “increased cortical bone mass”.

On to “Ser Val Ser Glu Ile Gln Leu Met His Asn Leu Gly Lys His Leu Asn Ser Met Glu Arg Val Glu Trp Leu Arg Lys Lys Leu Gln Asp Val-NH2 [PTH[1-31]NH2]”, for which the AC-stimulating activity entry with adenylyl cyclase (AC) was “has only AC-stimulating activity”. Besides, the “restoration of bone loss” value in the assay with ovariectomized rat model was “fully active”. The “proximal tibia trabecular bone mineral density (BMD) by pQCT” value in the assay on ovariectomized rats is recorded as “continue to increase”. For the same substance, in the assay on ovariectomized rats (compared to OVX), the “bone formation rate/bone surface (BFR/BS) on the periosteal surface” value is “increased BFR/BS”. The total area entry with ovariectomized rats (cortical bone) is “did not increase significantly except hPTH amide (1-31)”. Also, the “cortical bone mass, bone formation” value with ovariectomized rats (rat, in vivo) is recorded as “increased cortical bone mass”.

“PTH[1-33]NH2: C-terminal amidated human parathyroid hormone analog; hPTH-(1-33) sequence is SEQ ID NO:21 (SVSEIQLMHNLGKHLNSMERVEWLRKKLQDVHN-NH2; listed as Homo sapiens)”: the “proximal tibia trabecular bone mineral density (BMD) by pQCT” value in the assay with ovariectomized rats is recorded as “did not continue to increase”. In the assay with ovariectomized rats (compared to OVX), the “bone formation rate/bone surface (BFR/BS) on the periosteal surface” value is on record as “increased BFR/BS”. The “cortical bone mass, bone formation” value in the assay with ovariectomized rats (rat, in vivo) is recorded as “increased cortical bone mass”.

As for “PTH[1-32]NH2: C-terminal amidated human parathyroid hormone analog; hPTH-(1-32) sequence is SEQ ID NO:20 (SVSEIQLMHNLGKHLNSMERVEWLRKKLQDVH-NH2; listed as Homo sapiens)”, in the assay on ovariectomized rats, the “proximal tibia trabecular bone mineral density (BMD) by pQCT” value is “continue to increase”. Further, the “percent porosity of the intracortex” value in the assay with ovariectomized rats (compared to OVX) was “significantly increased when compared to OVX except hPTH(1-32) amide”. Further, the “cortical bone mass, bone formation” value in the assay with ovariectomized rats (rat, in vivo) was “increased cortical bone mass”.

For “PTH[1-30]NH2: amidated fragment of human parathyroid hormone (PTH), 30 amino acids (SVSEIQLMHNLGKHLNSMERVEWLRKKLQD-NH2; UniProt P01270 32-61, looked up, fragment)”, in the assay with ovariectomized rats (setting [1]), the “increase in lumbar BMD (L3-L6) by DXA relative to the vehicle-treated ovariectomized animals” value came out at 13% and the “increase in maximal load, compression testing of a lumbar vertebral body, relative to vehicle-treated ovariectomized animals” value was determined as 53%. For the same substance, in the assay on ovariectomized rats (common dose), the “effect on bone mass and strength (conclusion)” value is on record as “gain in bone mass that was of a smaller magnitude than the other fragments”. In addition, in the assay with ovariectomized rats (histomorphometry), the “bone formation rate/bone surface, trabecular bone” value is on record as “anabolic effects of all hPTH amide fragments except hPTH(1-30)”. For the same substance, in the assay on ovariectomized rats (in contrast to OVX), the “trabecular area (trabecular bone mass)” value was “increased trabecular bone mass in contrast to OVX except for the hPTH amide fragment (1-30)”. Further, in the assay with ovariectomized rats (micro-CT and histomorphometry), the “anabolic effectiveness overall (percent trabecular area, bone volume/total volume, trabecular thickness and number)” value is recorded as “less anabolically effective than the other fragments”. In addition, the “osteocalcin (bone formation marker)” value in the assay on ovariectomized rats is recorded as “significant increase in osteocalcin was observed for all PTH fragment treated groups except for PTH(1-30)NH2”. In the assay on ovariectomized rats (rat, in vivo), the “cortical analysis of the midshaft of the femur by pQCT” value is on record as “all fragments to be effective except hPTH(1-30)NH2”; the “cortical bone mass, bone formation” value is reported as “anabolic effect is weak”; the “indices of cortical bone strength derived from pQCT” value is “no effect”.

Values taken from US20060270603A1, “Amidated parathyroid hormone fragments and uses thereof” (Unigene Laboratories Inc., priority 2004, published 2006).
